Laboratory results as given in patent US20240173289A1, “USE OF OXYMETHYL-MODIFIED DERIVATIVE OF QUERCETIN IN PREPARATION OF DRUG FOR INHIBITING TUMOR CELL PROLIFERATION” (ZHEJIANG UNIVERSITY, priority 2021, published 2024).

Experiments:
Assay type in all cases: cell-based
[1] = test system: human normal gastric cell line GES; assay: in vitro proliferation inhibition on normal cells (CCK-8); conditions: 48 h, read-out: half-inhibitory concentration
From the text: (§1) Osteosarcoma cell line 143B, HOS, and U2, liver cancer cell line HepG2, breast cancer cell line MDA-MB-231 and T47D, gastric cancer cell line AGS, BGC-823, and SGC-7901, cervical cancer cells Hela, lung cancer cells A549, intestinal cancer cells Caco2, mouse glioma cells BV-2, human prostate cancer cells PC3, human thyroid cancer cell line BCPAP, human normal liver cell line L02, human normal gastric cell line GES, human umbilical vein epithelial cells HUVEC, and human embryonic lung fibroblasts WI-38 were cultured in a DMEM medium containing 10% fetal bovine serum and 1×HEPES in a humid incubator (37° C., 5% CO2). The cells were passaged with trypsin-EDTA in logarithmic phase. Certain density of cells (AGS, T47D, Caco2, BCPAP, GES, HUVEC 1×10^5 cells per well; HepG2, MDA-MB-231, BGC-823, A549, PC3, L02 8×10^4 cells per well; 143B, HOS, U2, SGC-7901, Hela, BV-2, 5×10^4 cells per well; WI-38, 3×10^5 cells per well) were inoculated in a 96-well plate, and cultured for 24 h before treatment. After replacing a fresh medium, 12.5 mg/L to 400 mg/L, of quercetin 3,3′-dimethyl ether dissolved with DMSO was added into a medium (a final volume ratio was 0.1%, and the DMSO was used as a […]). After incubation for 48 h, a complete medium was replaced with a serum-free medium containing 10% CCK-8 reagent. The absorbance at 450 nm and 620 nm was measured separately after the cells were incubated for 1 h. Each experiment was repeated three times independently.

[2] = test system: human umbilical vein epithelial cells HUVEC; assay: as above; conditions: 48 h, read-out: half-inhibitory concentration
From the text: as §1

[3] = test system: human normal liver cell line L02; assay: as above; conditions: 48 h, read-out: half-inhibitory concentration
From the text: as §1

[4] = test system: human embryonic lung fibroblasts WI-38; assay: as above; conditions: 48 h, read-out: half-inhibitory concentration
From the text: as §1

[5] = test system: HepG2 cells; assay: scratch test, metastasis capacity; conditions: 1 mg/L, after 1 d (24 h) of incubation
Protocol: HepG2 cells with a cell density of 5×10^5/mL were plated on a 6-well plate (1 mL per well), added to a DMEM medium containing 10% fetal calf serum, and cultured overnight to form a monolayer of cells. A horizontal scratch was scratched on the monolayer of cells with a pipette tip of 200 μL, washed with PBS 3 times, added into a DMEM medium containing 10% fetal bovine serum, and then added with 1 mg/L of a quercetin 3,3′-dimethyl ether solution, while DMSO was used as a solvent control, and then incubated for 24 h.

[6] = test system: gastric cancer cells BGC-823; assay: apoptosis, AnnexinV-FITC/PI flow cytometry; conditions: 5 mg/L, 24 h
From the text: (§2) The tumor cells growing in the logarithmic phase were digested with trypsin, collected by centrifugation to prepare a suspension, the cells were counted and adjusted to a certain concentration (6×10^5 cells per mL for AGS, T47D, Caco2, BCPAP, GES, HUVEC; 5×10^5 cells per mL for HepG2, MDA-MB-231, BGC-823, A549, PC3, L02; 3×10^5 cells per mL for 143B, HOS, U2, SGC-7901, Hela, BV-2; 1.8×10^6 cells per mL for WI-38), and the cells at a certain concentration were transferred to a 6-well plate at a concentration of 1 mL per well. The cells were cultured in a cell culture incubator for 12 h to allow the cells to adhere to the wall. The corresponding dosages of a quercetin 3,3′-dimethyl ether solution were added (the dosage of osteosarcoma cells was 143B: 4 mg/L, HOS: 4 mg/L, U2: 10 mg/L; the dosage of breast cancer cells was MDA-MB-231: 2 mg/L, T47D: 3 mg/L; the dosage of gastric cancer cells was SGC7901: 6 mg/L, BGC823: 5 mg/L, AGS: 3 mg/L; the dosage of cervical cancer Hela cells was 2 mg/L; the dosage of lung cancer cell A549 was 3 mg/L; the dosage of intestinal cancer cells Caco2 was 4 mg/L; the dosage of mouse glioma BV2 was 4 mg/L; the dosage of human prostate cancer cells PC3 was 6 mg/L; and the dosage of human thyroid cancer cells BCPAP was 2 mg/L). While DMSO was used as a solvent control, and then incubated for 24 h. After acting for 24 h, the cells were collected by centrifugation at 300 g, 4° C. for 5 min, a supernatant was discarded, and the cells were washed twice with pre-cooled PBS, each time with centrifugation at 300 g, 4° C. for 5 min. (1˜5)×10^5 cells were collected and resuspended in […] 1× BindingBuffer. 5 μl of AnnexinV-FITC and 5 μl of PI were added, and mixed well gently. The cells were reacted at room temperature for 10 min in the dark. 400 μl of 1× Binding Buffer was added, mixed well, and the samples were detected by flow cytometry within 1 h. The analysis was conducted according to a standard detection procedure of flow cytometry, at an excitation wavelength of 488 nm, and 20,000 cells were counted, and obtained results were analyzed with cell cycle fitting software ModFit.

[7] = test system: osteosarcoma cells HOS; assay: apoptosis, AnnexinV-FITC/PI flow cytometry; conditions: 4 mg/L, 24 h
From the text: as §2

[8] = test system: breast cancer cells MDA-MB-231; assay: apoptosis, AnnexinV-FITC/PI flow cytometry; conditions: 2 mg/L, 24 h
From the text: as §2

[9] = test system: lung cancer cell A549; assay: apoptosis, AnnexinV-FITC/PI flow cytometry; conditions: 3 mg/L, 24 h
From the text: as §2

[10] = test system: human prostate cancer cells PC3; assay: apoptosis, AnnexinV-FITC/PI flow cytometry; conditions: 6 mg/L, 24 h
From the text: as §2

[11] = test system: HepG2; assay: apoptosis, AnnexinV-FITC/PI flow cytometry; conditions: 24 h, dosage not given
From the text: as §2

[12] = test system: intestinal cancer cells Caco2; assay: apoptosis, AnnexinV-FITC/PI flow cytometry; conditions: 4 mg/L, 24 h
From the text: as §2

[13] = test system: cervical cancer Hela cells; assay: apoptosis, AnnexinV-FITC/PI flow cytometry; conditions: 2 mg/L, 24 h
From the text: as §2

[14] = test system: osteosarcoma cells 143B; assay: apoptosis, AnnexinV-FITC/PI flow cytometry; conditions: 4 mg/L, 24 h
From the text: as §2

[15] = test system: breast cancer cells T47D; assay: apoptosis, AnnexinV-FITC/PI flow cytometry; conditions: 3 mg/L, 24 h
From the text: as §2

COc1cc(-c2oc3cc(O)cc(O)c3c(=O)c2OC)ccc1O [Quercetin 3,3′-dimethyl ether, quercetin 3,3′-dimethyl ether]
IC50 [1]: > 100 µg/mL | IC50 [2]: > 100 µg/mL | IC50 [3]: > 100 µg/mL | IC50 [4]: > 100 µg/mL | intercellular space (scratch) versus control group [5]: significantly higher | Treatment apoptosis ratio % [6]: 26.68 ± 3.45 % | Treatment apoptosis ratio % [7]: 23.09 ± 4.36 % | Treatment apoptosis ratio % [8]: 29.85 ± 4.49 % | Treatment apoptosis ratio % [9]: 20.28 ± 3.23 % | Treatment apoptosis ratio % [10]: 21.13 ± 5.11 % | Treatment apoptosis ratio % [11]: 32.36 ± 5.26 % | Treatment apoptosis ratio % [12]: 22.81 ± 3.72 *^ % | Treatment apoptosis ratio % [13]: 20.05 ± 4.31 % | Treatment apoptosis ratio % [14]: 24.72 ± 2.82 % | Treatment apoptosis ratio % [15]: 16.98 ± 1.37 %
